Source: patent US20260257992A1, “AGONISTS OF SMALL HETERODIMER PARTNER FOR CANCER THERAPY” (THE BOARD OF TRUSTEES OF THE UNIVERSITY OF ILLINOIS, priority 2023, published 2026)

Legend:
Treg expansion [1] = assay: Treg expansion in co-culture with compound-treated BMDMs (macrophages); format: cell-based, mouse; set-up: key to Treg expansion macrophages: ✓: using strict cutoffs with respect to DSHN for passing each metric; X: using strict cutoffs with respect to DSHN for passing each metric; conditions: for Treg expansion after BMDM pretreatment and washout: BMDMs pretreated, washed before co-culture with T cells; for Treg expansion, co-culture with treated BMDMs: dose response
Method: (§1) Preparation of Bone Marrow-Derived Macrophages (BMDMs) and Dendritic Cells. Bone marrow cells were collected from mouse tibia and femur. Cells were passed through 70-micron cell strainer and subsequently cultured 10 mL complete RPMI media supplemented with 20 ng/mL of recombinant murine M-CSF (576406; BioLegend, 315-02 PeproTech). On day 3, additional 5 ml of the complete media was added. On day 7, media was replaced. BMDMs were harvested on day 10 using cell stripper solution for further experiments. Dendritic cells were isolated from the spleens of wildtype, using mouse CD11c UltraPure MicroBeads (130-125-835; Miltenyi Biotec) according to the manufacturer's instructions) and cultured in RPMI medium supplemented with 10% heat-inactivated charcoal-stripped FBS, 50 μM β-mercaptoethanol, 1% sodium pyruvate, 1% nonessential amino acids, % penicillin/streptomycin, and 1% Glutamax.
(§2) In vitro Treg expansion assays. T cells were cultured in RPMI medium supplemented with 10% heat-inactivated charcoal-stripped FBS, 50 μM β-mercaptoethanol (Gibco), 1% sodium pyruvate, 1% nonessential amino acids, % penicillin/streptomycin, and 1% Glutamax (Gibco). Naïve CD4^+ T cells were isolated from the spleens of wildtype and OT-II, using Naive CD4^+ T Cell Isolation Kit (Miltenyi Biotec according to the manufacturer's instructions). T cells were labeled with the vital dye CFSE (BioLegend) or Cell Trace Violet (ThermoFisher) according to the manufacturer's instructions. For wildtype Treg expansion in presence of antigen presenting cells, naïve CD4^+ T cells were co-cultured with APC at indicated ratio in the presence of 0.5 μg/mL (anti-CD3 BioLegend), 0.5 ng/mL TGFβ (BioLegend) and 0.5 ng/ml IL-2 (BioLegend) for 72 hr at 37° C. For OT-II Treg expansion, OTII naïve CD4^+ T cells from OT-II mice were activated by antigen presentation by culturing BMDMs were primed with 10 μg/mL OVA323-339 (Bachem) and 0.5 μg/mL LPS (Sigma). naïve CD4+ T cells from OTII mice were co-cultured with primed APC at indicated ratio for 72 hrs. After 72 hrs of culture, cells were transferred into V-bottom plates (BD), pelleted by centrifugation and incubated with antibody staining mix containing Ghost Dye™ Red 780 viability dye diluted in PBS for 15 minutes at 4° C. Cell surface antigens were stained for 15 minutes at 4° C. with an antibody staining mix containing Ghost Dye™ Red 780 viability dye diluted in PBS. Cells were fixed and permeabilized with BD Cytofix/Cytoperm™ for 20 minutes at 4° C. Antibodies against intracellular antigens were diluted in 1×BD Perm/Wash™ buffer and cells were stained for 30 minutes at 4° C. Cytometry data were acquired on a LSRII, Fortessa, Symphony A1 (Becton Dickinson, NJ). Foxp3 induction was assessed by expression of FOXP3.

NR0B2 = molecular target: T1, NR0B2 (Homo sapiens, UniProt Q15466); assay: ABCA1 reporter screen to identify NR0B2 agonists (HepG2); format: cell-based; set-up: key: ✓: using strict cutoffs with respect to DSHN for passing each metric; X: using strict cutoffs with respect to DSHN for passing each metric; conditions: HepG2, 50 μM test compound, 1 μM GW3965; pass/fail with respect to DSHN
T1 construct: a reporter assay which makes use of the endogenous cholesterol homeostatic feedback loop; endogenous in cells; host or cells: HepG2
T1 sequence (Q15466 1-257): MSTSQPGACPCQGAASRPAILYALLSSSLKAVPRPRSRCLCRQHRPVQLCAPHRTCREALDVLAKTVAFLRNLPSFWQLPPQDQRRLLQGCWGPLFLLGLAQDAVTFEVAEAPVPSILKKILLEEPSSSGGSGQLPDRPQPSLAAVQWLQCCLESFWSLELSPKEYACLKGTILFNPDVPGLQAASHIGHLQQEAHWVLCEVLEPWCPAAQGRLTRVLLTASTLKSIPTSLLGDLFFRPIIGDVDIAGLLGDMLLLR
Excerpt: Development of a more efficacious NR0B2 agonist. While DSHN was a useful proof-of-concept small molecule, macrophages required high doses and chronic exposure for robust influences on subsequent Tregs expansion. […] Therefore, we synthesized several derivatives of DSHN and screened them using a reporter assay which makes use of the endogenous cholesterol homeostatic feedback loop, where FXR activation upregulates NR0B2, which then inhibits LXR and its normal induction of ABCA1. We then followed this screen with several others with stringent cutoffs: effect on endogenous ABCA1 and IL1β expression, reduction of Treg expansion in either macrophage or DC co-cultures, and low cellular toxicity (FIG. 5A, Table 4).
Screening to identify NR0B2 agonists. HepG2 cells were co-transfected with ABCA1 renilla reporter plasmid and TK-control firefly luciferase vector at 20:1 using Lipofectamine 3000 reagent according to manufacturer's instructions for 24 hrs. Afterwards, 7000 cells were seeded in to 384 well f-bottom, white plates (Greiner Bio-One). Test compounds were added to the plates in a final working volume of 30 μL (for a final concentration of 50 μM) in presence of DMSO or 1 μM GW3965 and incubated for 20-24 hrs at 37° C. Luciferase activity was measured using the Luc-Pair Duo-Luciferase HT Assay kit (GeneCopoeia, Rockville, MD, USA) by adding luciferase substrates sequentially following manufacturer instructions. Luminescence was measured with 2 s integration times in a microplate reader (BioTek Cytation 5), 15 min after adding each substrate. The addition of reagents to the microplates was timed at each step to match the reading time delays and reading sequence of the microplate reader.

Treg expansion [2] = assay: Treg expansion in co-culture with compound-treated splenic CD11C+ dendritic cells; format: cell-based, mouse; set-up: key to Treg expansion Dendritic Cells: ✓: using strict cutoffs with respect to DSHN for passing each metric; X: using strict cutoffs with respect to DSHN for passing each metric
Method: as §1, §2

breast cancer cell lines = assay: Proliferation of breast cancer cell lines; format: cell-based
Excerpt: Protective attributes of NR0B2 are likely due to its expression in myeloid cells. […] Among human PBMCs, various subtypes of dendritic cells (DCs) and monocyte populations had elevated expression of NR0B2.

Aqueous solubility = format: physicochemical

Row | ABCA1 reporter screen (NR0B2) | SMILES | Treg expansion after BMDM pretreatment and washout (Treg expansion [1]) | Treg expansion, co-culture with treated BMDMs (Treg expansion [1]) | Treg expansion macrophages (Treg expansion [1]; pass/fail with respect to DSHN) | Tregs, splenic CD11C+ (DC-enriched) cells (Treg expansion [2]; 50 μM DSHN-OMe versus 100 μM DSHN) | Treg expansion Dendritic Cells (Treg expansion [2]; pass/fail with respect to DSHN) | Proliferation of breast cancer cell lines (breast cancer cell lines) | Aqueous solubility (Aqueous solubility)
1 | ✓ | CCN(CC)S(=O)(=O)c1cccc2cc(C(=O)OC)c(O)cc12 [DSHN-OMe, Methyl 5-(N,N-diethylsulfamoyl)-3-hydroxy-2-naphthoate] | decreased Treg expansion | elicited a reduction in Treg expansion with a lower dose, and had a larger biological maximum | ✓ | significantly fewer Tregs compared to twice the dose of DSHN | ✓ |  | 
2 |  | CCN(CC)S(=O)(=O)c1cccc2cc(C(=O)O)c(O)cc12 [DSHN, reference compound] | not effective at reducing Treg expansion | reduced subsequent Treg expansion in a dose related manner |  |  |  | no effect on proliferation | poor aqueous solubility
